Laboratory results: patent publication US6376497B1, “Antifungal azole derivatives having a fluorinated vinyl group and process for preparing same” (Korea Research Institute of Chemical Technology, priority 1999, dated 2002)

How the values were obtained:
Test in all cases: In vitro antifungal activity, microbroth dilution MIC
Format in all cases: cell-based
[1] = system: Trichophyton mentagrophytes A. 9129; settings: RPMI-1640, 35° C., no growth observed
Procedure, shortened: (§1)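 Broth microdilution adapted from NCCLS M27, in RPMI-1640 with 0.165 M MOPS, pH 7.0. Yeast or mould inoculum at 2×10^3 CFU/ml was mixed 1:1 with DMSO-derived compound solutions (200 to 0.10 μg/ml before mixing) and incubated at 35 °C for 4 to 48 h. MIC was the concentration showing no growth.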

[2] = system: Aspergillus furnigatus B. 19119; settings: RPMI-1640, 35° C., no growth observed
Procedure, shortened: as §1

[3] = system: Cryptococcus neoformans A. 34144; settings: RPMI-1640, 35° C., no growth observed
Procedure, shortened: as §1

[4] = system: Candida albicans IFO. 1385; settings: RPMI-1640, 35° C., 4 to 48 hours, no growth observed
Procedure, shortened: as §1

[5] = system: Cryptococcus neoformans IFM. 40092; settings: RPMI-1640, 35° C., no growth observed
Procedure, shortened: as §1

[6] = system: Torulopsis glabrata B. 16205; settings: RPMI-1640, 35° C., 4 to 48 hours, no growth observed
Procedure, shortened: as §1

[7] = system: Cryptococcus neoformans B. 42419; settings: RPMI-1640, 35° C., 4 to 48 hours, no growth observed
Procedure, shortened: as §1

[8] = system: Candida pseudotropicalis K. 11658; settings: RPMI-1640, 35° C., 4 to 48 hours, no growth observed
Procedure, shortened: as §1

[9] = system: Aspergillus niger A. 16404; settings: RPMI-1640, 35° C., no growth observed
Procedure, shortened: as §1

[10] = system: Candida tropicalis A. 13803; settings: RPMI-1640, 35° C., 4 to 48 hours, no growth observed
Procedure, shortened: as §1

[11] = system: Trichophyton mentagrophytes B. 32663; settings: RPMI-1640, 35° C., no growth observed
Procedure, shortened: as §1

[12] = system: Candida albicans A. 10231; settings: RPMI-1640, 35° C., 4 to 48 hours, no growth observed
Procedure, shortened: as §1

Candida albicans C1-2 = settings: RPMI-1640, 35° C., 4 to 48 hours, no growth observed
Procedure, shortened: as §1

[13] = system: Candida parapsitosis A. 7330; settings: RPMI-1640, 35° C., 4 to 48 hours, no growth observed
Procedure, shortened: as §1

Candida krusei K. 11655 = settings: RPMI-1640, 35° C., 4 to 48 hours, no growth observed
Procedure, shortened: as §1

Compound | Minimal inhibitory concentration(MIC), T. mentagrophytes A. 9129 ([1]; 4 to 48 hours) | Minimal inhibitory concentration(MIC), A furnigatus B. 19119 ([2]; 4 to 48 hours) | Minimal inhibitory concentration(MIC), Cry. neoformans A. 34144 ([3]; 4 to 48 hours) | Minimal inhibitory concentration(MIC), C. albicans IFO. 1385 [4] | Minimal inhibitory concentration(MIC), Cry. neoformans IFM. 40092 ([5]; 4 to 48 hours) | Minimal inhibitory concentration(MIC), T. glabrata B. 16205 [6] | Minimal inhibitory concentration(MIC), Cry. neoformans B. 42419 [7] | Minimal inhibitory concentration(MIC), C. pseudotropicalis K. 11658 [8] | Minimal inhibitory concentration(MIC), A. niger A. 16404 ([9]; 4 to 48 hours) | Minimal inhibitory concentration(MIC), C. tropicalis A. 13803 [10] | Minimal inhibitory concentration(MIC), T. mentagrophytes B. 32663 ([11]; 4 to 48 hours) | Minimal inhibitory concentration(MIC), C. albicans A. 10231 [12] | Minimal inhibitory concentration(MIC), C. albicans C1-2 (Candida albicans C1-2) | Minimal inhibitory concentration(MIC), C. parapsitosis A. 7330 [13] | Minimal inhibitory concentration(MIC), C. krusei K. 11655 (Candida krusei K. 11655) | other results
FC(=C(c1ccc(Cl)cc1)C(F)(F)F)N1CCN(c2ccc(OCC3COC(Cn4ccnc4)(c4ccc(Cl)cc4Cl)O3)cc2)CC1 (mixture of isomers) [Ex. 134] | 6.25 µg/mL | >100 µg/mL | 0.39 µg/mL | 1.56 µg/mL | 0.20 µg/mL | >100 µg/mL | 0.78 µg/mL | 1.56 µg/mL | >100 µg/mL | >100 µg/mL | 1.56 µg/mL | >100 µg/mL | >100 µg/mL | 3.13 µg/mL | 1.56 µg/mL | –
FC(=C(c1cc(Cl)cc(Cl)c1)C(F)(F)F)N1CCN(c2ccc(OCC3COC(Cn4ccnc4)(c4ccc(Cl)cc4Cl)O3)cc2)CC1 (mixture of isomers) [Ex. 136] | >100 µg/mL | >100 µg/mL | >100 µg/mL | >100 µg/mL | 1.56 µg/mL | >100 µg/mL | >100 µg/mL | >100 µg/mL | >100 µg/mL | >100 µg/mL | >100 µg/mL | >100 µg/mL | >100 µg/mL | >100 µg/mL | >100 µg/mL | –
FC(=C(c1ccccc1)C(F)(F)F)N1CCN(c2ccc(OCC3COC(Cn4ccnc4)(c4ccc(F)cc4F)O3)cc2)CC1 (mixture of isomers) [Ex. 138] | 3.13 µg/mL | 12.5 µg/mL | 0.78 µg/mL | 0.78 µg/mL | ≦0.10 μg/ml | 100 µg/mL | 0.78 µg/mL | 1.56 µg/mL | 100 µg/mL | >100 µg/mL | ≦0.10 μg/ml | >100 µg/mL | >100 µg/mL | 0.78 µg/mL | 1.56 µg/mL | –

The next lines start with results.

Minimal inhibitory concentration(MIC), T. mentagrophytes A. 9129 ([1]; 4 to 48 hours) | Minimal inhibitory concentration(MIC), A furnigatus B. 19119 ([2]; 4 to 48 hours) | Minimal inhibitory concentration(MIC), Cry. neoformans A. 34144 ([3]; 4 to 48 hours) | Minimal inhibitory concentration(MIC), C. albicans IFO. 1385 [4] | Minimal inhibitory concentration(MIC), Cry. neoformans IFM. 40092 ([5]; 4 to 48 hours) | Minimal inhibitory concentration(MIC), T. glabrata B. 16205 [6] | Minimal inhibitory concentration(MIC), Cry. neoformans B. 42419 [7] | Minimal inhibitory concentration(MIC), C. pseudotropicalis K. 11658 [8] | Minimal inhibitory concentration(MIC), A. niger A. 16404 ([9]; 4 to 48 hours) | Minimal inhibitory concentration(MIC), C. tropicalis A. 13803 [10] | Minimal inhibitory concentration(MIC), T. mentagrophytes B. 32663 ([11]; 4 to 48 hours) | Minimal inhibitory concentration(MIC), C. albicans A. 10231 [12] | Minimal inhibitory concentration(MIC), C. albicans C1-2 (Candida albicans C1-2) | Minimal inhibitory concentration(MIC), C. parapsitosis A. 7330 [13] | Minimal inhibitory concentration(MIC), C. krusei K. 11655 (Candida krusei K. 11655) | Compound | other results
6.25 µg/mL | >100 µg/mL | 0.78 µg/mL | 3.13 µg/mL | 0.20 µg/mL | >100 µg/mL | 0.39 µg/mL | 1.56 µg/mL | >100 µg/mL | >100 µg/mL | 1.56 µg/mL | >100 µg/mL | >100 µg/mL | 3.13 µg/mL | 1.56 µg/mL | FC(=C(c1cccc(Cl)c1)C(F)(F)F)N1CCN(c2ccc(OCC3COC(Cn4ccnc4)(c4ccc(Cl)cc4Cl)O3)cc2)CC1 (mixture of isomers) [Ex. 133] | –
3.13 µg/mL | >100 µg/mL | 0.39 µg/mL | 1.56 µg/mL | 0.20 µg/mL | >100 µg/mL | 0.78 µg/mL | 1.56 µg/mL | >100 µg/mL | >100 µg/mL | 1.56 µg/mL | >100 µg/mL | >100 µg/mL | 1.56 µg/mL | 1.56 µg/mL | FC(=C(c1ccc(F)cc1)C(F)(F)F)N1CCN(c2ccc(OCC3COC(Cn4ccnc4)(c4ccc(Cl)cc4Cl)O3)cc2)CC1 (mixture of isomers) [Ex. 135] | –
6.25 µg/mL | 25.0 µg/mL | 0.78 µg/mL | 0.78 µg/mL | ≦0.10 μg/ml | 100 µg/mL | 0.78 µg/mL | 1.56 µg/mL | 100 µg/mL | >100 µg/mL | 0.39 µg/mL | >100 µg/mL | >100 µg/mL | 0.78 µg/mL | 1.56 µg/mL | Cc1cccc(C(=C(F)N2CCN(c3ccc(OCC4COC(Cn5ccnc5)(c5ccc(F)cc5F)O4)cc3)CC2)C(F)(F)F)c1 (mixture of isomers) [Ex. 139] | –
12.5 µg/mL | 50.0 µg/mL | 1.56 µg/mL | 1.56 µg/mL | 0.39 µg/mL | 100 µg/mL | 1.56 µg/mL | 1.56 µg/mL | >100 µg/mL | >100 µg/mL | 0.39 µg/mL | >100 µg/mL | >100 µg/mL | 1.56 µg/mL | 3.13 µg/mL | CCCCc1ccc(C(=C(F)N2CCN(c3ccc(OCC4COC(Cn5ccnc5)(c5ccc(F)cc5F)O4)cc3)CC2)C(F)(F)F)cc1 (mixture of isomers) [Ex. 140] | –
– | – | – | 0.78 µg/mL | – | 100 µg/mL | 0.78 µg/mL | 3.13 µg/mL | – | >100 µg/mL | – | >100 µg/mL | >100 µg/mL | 1.56 µg/mL | 1.56 µg/mL | Cc1cc(C)cc(C(=C(F)N2CCN(c3ccc(OCC4COC(Cn5ccnc5)(c5ccc(F)cc5F)O4)cc3)CC2)C(F)(F)F)c1 (mixture of isomers) [Ex. 141] | Minimal inhibitory concentration(MIC), T. mentagrophytes A. 9129 [1]: 6.25 µg/mL; Minimal inhibitory concentration(MIC), A furnigatus B. 19119 [2]: 50.0 µg/mL; Minimal inhibitory concentration(MIC), Cry. neoformans A. 34144 [3]: 1.56 µg/mL; Minimal inhibitory concentration(MIC), Cry. neoformans IFM. 40092 [5]: 0.78 µg/mL; Minimal inhibitory concentration(MIC), A. niger A. 16404 [9]: >100 µg/mL; Minimal inhibitory concentration(MIC), T. mentagrophytes B. 32663 [11]: 0.78 µg/mL
